Measured values from patent publication US10617664B2, “Brain derived PPARα ligands” (Rush University Medical Center, priority 2015, dated 2020).

Legend:
[1] = GC-MS of GFP-affinity purified extract of transduced Ppara-null hippocampal neurons; type: binding, mouse; conditions: Vector Only; for Rel. Abundance (RA): normalized with internal standard
Protocol: Lentivirus-mediated de novo expression studies were performed, where wild type full-length (GFP-FLPpara) was overexpressed and three different LBD-mutated PPARα (GFP-Y314D, GFP-Y464D and GFP-Y314D/Y464D Ppara) recombinant proteins (FIG. 9D) were expressed in neurons followed by binding analyses with three endogenous ligands. Briefly, site directed mutagenesis was performed in the mouse PPARα with Y314 and Y464 residues replaced separately or together with aspartate (D). After that, the entire mouse GFP-Ppara gene (GFP-FLPpara) and three different mutated genes were cloned in the pLenti6/V5-TOPO lentiviral expression vector (FIG. 3D), packaged in lentivirus particle with HEK293FT cells, purified full length and mutated PPARα proteins in a GFP-affinity column, and finally thermal shift assays were performed in order to analyze their conformational stability. […] After 48 h of transduction, the cells were homogenized, passed through GFP-affinity column, eluted, fractionated with chloroform-methanol, and finally analyzed by GC-MS for the detection of ligands. […] On the other hand, mutation of the Y464 completely knocked down the ligand binding affinity as we observed profound loss of ligand binding in both lenti-GFP-Y464D-Ppara (FIG. 3K, FIG. 9K) and lenti-GFP-Y314D/Y464D-Ppara (FIG. 3L, FIG. 9L)-transduced Ppara-null neurons. Throughout these analyses, we used 2,4-bis (α, α-dimethyl benzyl) phenol as an internal standard (Supplementary FIG. 5A-F). We normalized peak area of different ligands with that of internal standard and then quantified the binding affinity of these ligands with different construct of PPARα by peak integration statistics (Table 1).
Either E18 cultured mouse hippocampal neurons or hippocampal tissue of 6-8 week old male C57/BL6 mice were homogenized in ice-cold nondetergent hypotonic buffer [10 mM HEPES (pH 7.9), 1.5 mM MgCl2, 10 mM KCl, […], protease and phosphatase inhibitor cocktail]. After 10 min of additional incubation in the hypotonic buffer, the homogenate was centrifuged at 8,000 g at 4° C. for 10 min. Next, the pellet was homogenized in ice-cold extraction buffer [10 mM HEPES (pH 7.9), 1.5 mM MgCl2, 0.21 M NaCl, 0.2 mM EDTA, 25% (v/v) glycerol, […], protease and phosphatase inhibitor cocktail], placed on a rotating shaker at 4° C. for 1 h, and then centrifuged at 18,000 g for 10 min. The supernatant (nuclear fraction) was incubated with 1.5 μg of GST PPARα LBD (Protein One) at 4° C. for 6 h in a rotating shaker. The reaction mixture was passed through glutathione column (Pierce® GST Spin Purification Kit), washed four times [50 mM Tris HCl (pH 7.4), 100 mM NaCl, protease and phosphatase inhibitor cocktail] and then eluted with free glutathione. The eluate was transferred to methanol:chloroform:water (4:3:1) mixture and then centrifuged at 14,000 rpm for 90 sec. The organic phase was collected, evaporated in the SpeedVac, reconstituted with 30 μL chloroform or acetonitrile, and then analyzed by GC-MS. In another case, E18 cultured hippocampal neurons were transduced with lentiviral particles conjugated with PPARα-LBD or different GFP-tagged mutated constructs followed by pulling down with anti-PPARα antibody or passing the extract through GFP-column of Vector Fusion-Aid GFP Kit (Cat # MB-0732). After that, the eluate was collected from the column with 5M NaCl solution, concentrated with PD-10 desalting column and analyzed for GC-MS.
A JEOL GCMate II (JEOL USA, Peabody Mass.) mass spectrometer was used in these experiments. The gas chromatograph was an Agilent 6890Plus (Wilmington Del.) equipped with a G1513A auto-injector with 100 vial sample tray connected to a G1512A controller. The gas chromatography column was a fused silica capillary column with a nonpolar 5% phenyl 95% dimethylpolysiloxane phase (Agilent HP-5 ms), 30 meters long, 0.25 mm internal diameter, 0.25 μm film thickness. […]

Y314D-Ppara = biological target: T1, Y314D-Ppara (Mus musculus, UniProt P23204, Y314D); assay: as above; type: binding; conditions: lenti-GFP-Y314D-Ppara transduced Ppara-null neurons
T1 construct: the entire mouse GFP-Ppara gene (GFP-FLPpara) and three different mutated genes were cloned; expressed in transfected cells; host or cells: Ppara-null mouse hippocampal neurons, lentiviral transduction
T1 sequence (P23204 1-468 Y314D): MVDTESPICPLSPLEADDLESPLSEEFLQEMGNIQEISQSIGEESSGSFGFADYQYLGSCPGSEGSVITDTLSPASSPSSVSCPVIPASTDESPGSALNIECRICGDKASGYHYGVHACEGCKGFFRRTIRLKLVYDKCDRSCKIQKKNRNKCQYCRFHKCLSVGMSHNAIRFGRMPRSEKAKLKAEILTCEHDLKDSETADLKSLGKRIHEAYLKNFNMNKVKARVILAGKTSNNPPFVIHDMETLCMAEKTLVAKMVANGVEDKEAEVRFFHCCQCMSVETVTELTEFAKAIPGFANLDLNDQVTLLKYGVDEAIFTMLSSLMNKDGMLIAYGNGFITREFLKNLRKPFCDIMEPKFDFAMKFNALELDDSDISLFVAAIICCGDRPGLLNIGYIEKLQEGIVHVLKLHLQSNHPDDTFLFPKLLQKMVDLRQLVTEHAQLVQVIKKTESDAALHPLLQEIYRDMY
Protocol: Lentivirus-mediated de novo expression studies were performed, where wild type full-length (GFP-FLPpara) was overexpressed and three different LBD-mutated PPARα (GFP-Y314D, GFP-Y464D and GFP-Y314D/Y464D Ppara) recombinant proteins (FIG. 9D) were expressed in neurons followed by binding analyses with three endogenous ligands. Briefly, site directed mutagenesis was performed in the mouse PPARα with Y314 and Y464 residues replaced separately or together with aspartate (D). […] We normalized peak area of different ligands with that of internal standard and then quantified the binding affinity of these ligands with different construct of PPARα by peak integration statistics (Table 1).
Either E18 cultured mouse hippocampal neurons or hippocampal tissue of 6-8 week old male C57/BL6 mice were homogenized in ice-cold nondetergent hypotonic buffer [10 mM HEPES (pH 7.9), 1.5 mM MgCl2, 10 mM KCl, […], protease and phosphatase inhibitor cocktail]. […] The organic phase was collected, evaporated in the SpeedVac, reconstituted with 30 μL chloroform or acetonitrile, and then analyzed by GC-MS. […] After that, the eluate was collected from the column with 5M NaCl solution, concentrated with PD-10 desalting column and analyzed for GC-MS. […]

SMILES	% RA [1]	Adjusted peak area [1]	Rel. Abundance (RA) [1]	amount detected in nuclear extract by GC-MS (Y314D-Ppara)
CCCCCCCCC=CCCCCCCCC(N)=O [OCT, 9-octadecenamide]	8.69%	79623	0.08689	low amount
CCCCCCCCCCCCCCCC(N)=O [HEX, hexadecanamide]	1.92%	17632	0.01924	low amount
